Data reported in PMC4149238, “Systemic delivery of P42 peptide: a new weapon to fight Huntington’s disease” (Acta Neuropathologica Communications, 2014).
Residues, ends and D or L forms follow the SMILES beside them. *: point of attachment. 5TAMRA = CN(C)c1ccc2c(c1)Oc1cc(N(C)C)ccc1C21OC(=O)c2cc(C(=O)*)ccc21

Tests used:
[1] = system: HeLa cells; assay: Internalization of exogenous peptide into HeLa cells; assay type: cell-based, human; conditions: synthetic TAMRA end-labelled peptide in culture medium, anti-TAMRA immunostaining, confocal
Description: (§1) HeLa cells were grown and maintained in DMEM medium (Gibco) supplemented with 10% fetal calf serum and glutamine. HeLa cells were grown in 6 well plates, and pDdest53-GFP-hHtt^171aa-136Q (0.75 μg) was transfected with JetPei reagent (Qbiogene). Equal amounts of pcDNA-Cherry-P42 or control vector were added for each transfection to level the total amount of plasmid DNA. To test the internalization of exogenous peptide, synthesized TAMRA-P42-TAT was added at the same time as pDest53-GFP-hHtt^171aa-Q136 transfection, at different concentrations (0, 0.5, 1, 5, 10 or 20 μM). Cells were incubated with plasmid and peptide for 12 h. Then the medium was washed twice with PBS, the cells trypsinized, and grown on a coverslip with new DMEM medium for 6 h. This step was necessary to eliminate the peptide that crystallizes on the well. Eventually, cells were fixed with 4% paraformaldehyde and immunostained for microscopic analysis. To observe the internalization of the peptide TAMRA-P42-TAT, the signal was amplified by anti-TAMRA immunostaining (1:500- Invitrogen). Nuclei were counterstained with DAPI (4′, 6 diamino-2-phenylindole). The pictures were taken with a confocal laser scanning microscope model LSM780 (Carl Zeiss).

[2] = system: HeLa cells; assay: MTT test of HeLa cell survival; assay type: cell-based, human; conditions: large excess of peptide, data not shown
[3] = system: brain of wild-type C57BL/6 J mice; assay: Brain distribution of TAMRA-P42-TAT after ICV injection; assay type: in vivo, mouse
Description: To test the stability of the peptide in the brain, single intracerebroventricular (ICV) injection of peptides was performed in the right ventricle of C57BL/6 mice as described in [15]. 5 μg or 1 μg of TAMRA-P42-TAT were stereotaxically injected into the right lateral ventricle (coordinates 1 mm right lateral to bregma and 3 mm ventral to the skull surface) of C57BL/6 J mice using a 10 μl Hamilton syringe at a rate of 0.2 μl to 1 μl/min. As a control, saline was injected in the same volume and at the same rate. […]
TAMRA-P42-TAT injected mice were also immunostained with rabbit monoclonal anti-DARPP32 (MAb2306 - Cell Signaling Technology - 1: 1600), secondary detected by Alexa 488 anti-rabbit (1: 2000) to label the striatum, and with mouse monoclonal anti-NeuN (MAB377 – Millipore - 1: 1000), secondary detected by Dye light blue anti-mouse (1: 500), as a neuronal marker.

[4] = system: brain of wild-type C57BL/6 J mice; assay: Brain targeting after buccal/rectal NP42T (MALDI Imaging Mass Spectrometry); assay type: in vivo, mouse; conditions: NP42T 210 μg, four buccal and four rectal administrations, 3 h, MALDI IMS, two mice
Description: For MALDI analysis, wild-type C57BL/6 J mice have been injected either by ICV (2.1 μg), or treated with empty NP, or with NP42T (210 μg) microemulsions. For NP and NP42T, four buccal and four rectal administrations (1 ml/kg) have been performed, spaced by 30 minutes to ensure mucosa internalization. Two mice have been treated for each condition and sacrificed 3 h after the injections.
Tissue preparation and MALDI imaging analysis: Frozen brain sections were cut in 15 μm slices using an HM 550 OVPD cryostat (Fisher Scientific, Illkirch, France), set at −20°C, mounted on ITO coated conductive glass slides and allowed to thaw and desiccate in a vacuum desiccator. Tissue sections were then coated manually with a 10 mg/ml α-cyano-4-hydroxycinnamic acid dissolved in 50% acetonitrile (ACN) and 0.1% trifluoroacetic acid (TFA).
MALDI imaging was performed using the 4800 Plus MALDI TOF/TOF^TM Analyzer (AB Sciex). Image acquisition was achieved using the 4800 imaging tool software (MSI imaging). […]
The two dimensional ion image of the tissue section was analyzed using Tissue View^TM software (Applied Biosystems/MDS analytical technologies). A colour scale representing signal intensity is exported from Tissue View^TM software to provide semi quantitative information.

[5] = system: wild-type mice; assay: Tolerability in NP42T-treated wild-type mice; assay type: in vivo, mouse; conditions: week 2 to 11
Description: For animal experimentation, a cohort of 30 females was divided into four groups (WT treated with empty NP (n = 5); WT treated with NP42T (n = 8); R6/2 treated with empty NP (n = 8); R6/2 treated with NP42T (n = 9)). Administrations were performed five days a week, at the same time of the day, starting in 2-week-old mice. The treatment was performed until the mice were sacrificed (at week 11). NP42T peptide (600 μg/ml/kg) was administrated twice a day per mucosa, with two buccal injections until the mice were 4 week old, and via rectal and buccal injections for older animals older.

[6] = mice brain soluble extract, 15 μg peptide, incubation 0, 1, 3 and 6 h, MALDI-MS
Description: MALDI MS and MS/MS analysis: Spectra acquisition has been performed using the 4800 Plus MALDI TOF/TOF^TM mass spectrometer (ABSciex) controlled by the 4000 Series Explorer^TM. MS spectra were acquired in a reflector positive mode (mass range: m/z 700–4000, laser intensity set at 50% and 3000 total laser shots per spectrum, MS resolution ≥ 12000–17000). MS/MS precursor was selected manually with an absolute mass window of 1 Da and each MS/MS spectrum is the result of 1000 total laser shots with a laser intensity set at 50% and a MS/MS resolution ≥ 2000–5000. The fragmentation was performed at collision energy of 2 kV and a collision air pressure set at 10^−6 Torr.

[7] = system: GFP-hHtt^171aa-Q136 aggregation; assay: polyQ-hHtt aggregation in transfected HeLa cells (microscopy); assay type: cell-based, human; conditions: HeLa cells co-transfected with GFP-hHtt171aa-Q136 and vector expressing Cherry-tagged peptide, vs empty vector
Description: as §1

[8] = system: flies expressing hHtt exon1 with expanded polyQ; conditions: cited from earlier work
Text: Most research undertaken to find a cure for HD focus on the mutated allele (trying to reduce its expression), or on the polyQ stretch that is responsible for aggregation, but that is also present in other neurodegenerative diseases. Our approach is based on the observation that the ratio between normal and mutant Huntingtin is a crucial factor in the onset and progression of the disease. In a previous work, we confirmed the protective role of wild-type N-terminus Htt. We further screened human hHtt, for peptides able to prevent polyQ-hHtt aggregation i ... || The efficient rescue supported by P42 administration represents one of the best therapeutic effects described so far. Therapeutic research currently targets mutant Htt at transcriptional or post-translational level. The recent works in RNA interference or ASO strategies attempt to reduce the expression of the mutant transcript. Despite recent progress, the limitation of this approach lays in the effects on the wild-type allele and the aggravation of the loss of function effects. Biochemical molecules and intrabodies have also been designed against the protein, in order to target abnorma ...

**Q.** Which results are given for CC[C@H](C)[C@H](NC(=O)[C@H](CC(=O)O)NC(=O)[C@H](Cc1c[nH]cn1)NC(=O)CNC(=O)[C@H](C)NC(=O)[C@H](CO)NC(=O)CNC(=O)[C@@H]1CCCN1C(=O)[C@@H](NC(=O)[C@H](CO)NC(=O)[C@@H](NC(=O)CNC(=O)[C@H](CO)NC(=O)[C@H](CO)NC(=O)[C@H](C)NC(=O)[C@H](C)NC(=O)c1ccc2c(c1)C(=O)OC21c2ccc(N(C)C)cc2Oc2cc(N(C)C)ccc21)C(C)C)[C@@H](C)O)C(=O)N[C@H](C(=O)N[C@H](C(=O)N[C@@H](CCC(=O)O)C(=O)N[C@@H](CCC(N)=O)C(=O)N1CCC[C@H]1C(=O)N[C@@H](CCCNC(=N)N)C(=O)N[C@@H](CO)C(=O)NCC(=O)NCC(=O)N[C@@H](Cc1ccc(O)cc1)C(=O)NCC(=O)N[C@@H](CCCNC(=N)N)C(=O)N[C@@H](CCCCN)C(=O)N[C@@H](CCCCN)C(=O)N[C@@H](CCCNC(=N)N)C(=O)N[C@@H](CCCNC(=N)N)C(=O)N[C@@H](CCC(N)=O)C(=O)N[C@@H](CCCNC(=N)N)C(=O)N[C@@H](CCCNC(=N)N)C(=O)N[C@@H](CCCNC(=N)N)C(=O)O)[C@@H](C)O)[C@@H](C)CC [TAMRA-P42-TAT] (5TAMRA-AASSGVSTPGSAGHDIITEQPRSGGYGRKKRRQRRR-OH; N-terminus and C-terminus assumed)?
**A.** uptake into cultured cells [1]: taken up by almost all the cells; IC50 on HeLa cell survival (MTT test) [2]: could not be measured; detection in brain 24 hrs after ICV injection ([3]; C57BL/6 J mice, ICV 5 μg or 1 μg, 24 hrs, data not shown, n = 12): still detected; distribution in the striatum after ICV injection ([3]; wild-type C57BL/6 J mice, ICV, sacrificed 3 hours after injection, TAMRA signal, DARPP32/NeuN co-staining): largely diffusing within the neurons

**Q.** With CC[C@H](C)[C@H](NC(=O)[C@H](CC(=O)O)NC(=O)[C@H](Cc1c[nH]cn1)NC(=O)CNC(=O)[C@H](C)NC(=O)[C@H](CO)NC(=O)CNC(=O)[C@@H]1CCCN1C(=O)[C@@H](NC(=O)[C@H](CO)NC(=O)[C@@H](NC(=O)CNC(=O)[C@H](CO)NC(=O)[C@H](CO)NC(=O)[C@H](C)NC(=O)[C@H](C)N)C(C)C)[C@@H](C)O)C(=O)N[C@H](C(=O)N[C@H](C(=O)N[C@@H](CCC(=O)O)C(=O)N[C@@H](CCC(N)=O)C(=O)N1CCC[C@H]1C(=O)N[C@@H](CCCNC(=N)N)C(=O)N[C@@H](CO)C(=O)NCC(=O)NCC(=O)N[C@@H](Cc1ccc(O)cc1)C(=O)NCC(=O)N[C@@H](CCCNC(=N)N)C(=O)N[C@@H](CCCCN)C(=O)N[C@@H](CCCCN)C(=O)N[C@@H](CCCNC(=N)N)C(=O)N[C@@H](CCCNC(=N)N)C(=O)N[C@@H](CCC(N)=O)C(=O)N[C@@H](CCCNC(=N)N)C(=O)N[C@@H](CCCNC(=N)N)C(=O)N[C@@H](CCCNC(=N)N)C(=O)O)[C@@H](C)O)[C@@H](C)CC [P42-TAT] (H-AASSGVSTPGSAGHDIITEQPRSGGYGRKKRRQRRR-OH) as the molecule, how does the “presence in the brain after Aonys administration” value [4] read?
**A.** able to reach the brain

**Q.** And the “toxicity noticed during the study” value [5]?
**A.** no toxicity

**Q.** And the “time until full length peptide was degraded” value [6]?
**A.** ≤ 1 h

**Q.** For “P42: 23aa peptide lying in the N-terminus (position 480–502 aa) of normal human Htt”, which “rescue of GFP-Htt^171aa-Q136 aggregation” value [7] is on record?
**A.** completely rescue

**Q.** What about the “eye degeneration of flies expressing hHtt exon1 with expanded polyQ” value ([8]; Drosophila model of HD) of the same molecule?
**A.** able to prevent eye degeneration

**Q.** What about the effects on lifespan [8] of the same molecule?
**A.** partial

**Q.** Which “presence in the brain after Aonys administration” value [4] does the source give for CC[C@H](C)[C@H](NC(=O)[C@H](CC(=O)O)NC(=O)[C@H](Cc1c[nH]cn1)NC(=O)CNC(=O)[C@H](C)NC(=O)[C@H](CO)NC(=O)CN)C(=O)N[C@H](C(=O)N[C@H](C(=O)N[C@@H](CCC(=O)O)C(=O)N[C@@H](CCC(N)=O)C(=O)N1CCC[C@H]1C(=O)N[C@@H](CCCNC(=N)N)C(=O)N[C@@H](CO)C(=O)NCC(=O)NCC(=O)N[C@@H](Cc1ccc(O)cc1)C(=O)NCC(=O)O)[C@@H](C)O)[C@@H](C)CC [m/z 1801.84 derivative] (H-GSAGHDIITEQPRSGGYG-OH) here?
**A.** still present in the brain
